Test results from the NIST ThermoML archive (doi:10.1021/je400968v).

Test: mn = molality of the nth substance listed, in mol/kg
Conditions: 101 kPa, Liquid; for viscosity: Capillary tube (Ostwald / Ubbelohde) method; for mass density: Vibrating tube method

Cc1ccc(N)cc1N [4-methyl-1,3-benzendiamine] + CCCO
Conditions	mass density, 293.15 K [kg/m3]	mass density, 303.15 K [kg/m3]	mass density, 313.15 K [kg/m3]	mass density, 323.15 K [kg/m3]	mass density, 333.15 K [kg/m3]	viscosity, 293.15 K [mPa·s]	viscosity, 303.15 K [mPa·s]	viscosity, 313.15 K [mPa·s]	viscosity, 323.15 K [mPa·s]	viscosity, 333.15 K [mPa·s]
m1 = 0.05	805.47	797.13	788.94	780.57	771.96	2.189	1.71	1.348	1.074	0.864
m1 = 0.1003	807.05	798.71	790.49	782.12	773.5	2.206	1.723	1.354	1.079	0.868
m1 = 0.15	808.57	800.22	792.01	783.62	774.99	2.225	1.735	1.365	1.086	0.875
m1 = 0.1997	810.04	801.7	793.49	785.09	776.45	2.247	1.748	1.372	1.091	0.878
m1 = 0.2499	811.49	803.17	794.96	786.55	777.91	2.267	1.759	1.382	1.099	0.883
m1 = 0.2999	812.87	804.6	796.4	787.99	779.34	2.294	1.774	1.389	1.106	0.889
m1 = 0.3496	814.24	805.98	797.83	789.4	780.74	2.315	1.79	1.401	1.112	0.893
m1 = 0.3994	815.57	807.34	799.22	790.77	782.12	2.338	1.806	1.412	1.117	0.899
